According to ChEMBL document CHEMBL6083239, “Synthesis, optimization and antitumor activity evaluation of sulfonyl benzoyl hydrazide derivatives as novel human LSD1 inhibitors” (Bioorg Med Chem Lett, 2024):
In brackets after ≈: the same amount, converted by molar mass.

Key:
DU-145 = experiment: Antiproliferative activity against human DU-145 cells by MTT assay
A2780 = experiment: Antiproliferative activity against human A2780 cells by MTT assay
MDA-MB-231 = experiment: cells; conditions: Homo sapiens
Description: Antiproliferative activity against human MDA-MB-231 cells by MTT assay

HCT-116 [1] = experiment: Antiproliferative activity against human HCT-116 cells by MTT assay
A549 = experiment: cells; conditions: Homo sapiens
Description: Antiproliferative activity against human A549 cells by MTT assay

[2] = Solubility of compound; assay type: physicochemical
MCF7 = experiment: cells; conditions: Homo sapiens
Description: Antiproliferative activity against human MCF7 cells by MTT assay

HCT-116 [3] = experiment: Induction of apoptosis in human HCT-116 cells assessed as late apoptotic cells at 1 uM by Annexin V-FITC/PI staining based assay (reference value: 0.37%); assay type: functional
HCT-116 [4] = experiment: Induction of apoptosis in human HCT-116 cells assessed as viable cells at 2 uM by Annexin V-FITC/PI staining based assay (reference value: 96.76%); assay type: functional; conditions: read-out: Activity
HCT-116 [5] = experiment: Induction of apoptosis in human HCT-116 cells assessed as late apoptotic cells at 0.5 uM by Annexin V-FITC/PI staining based assay (reference value: 0.37%); assay type: functional
HCT-116 [6] = experiment: Induction of apoptosis in human HCT-116 cells assessed as late apoptotic cells at 2 uM by Annexin V-FITC/PI staining based assay (reference value: 0.37%); assay type: functional
HCT-116 [7] = experiment: Induction of apoptosis in human HCT-116 cells assessed as early apoptotic cells at 2 uM by Annexin V-FITC/PI staining based assay (reference value: 1.82%); assay type: functional
HCT-116 [8] = experiment: Induction of apoptosis in human HCT-116 cells assessed as viable cells at 0.5 uM by Annexin V-FITC/PI staining based assay (reference value: 96.76%); assay type: functional; conditions: read-out: Activity
HCT-116 [9] = experiment: Induction of cell cycle arrest in human HCT-116 cells assessed as increase in S-phase cells at 0.5 uM; assay type: functional
HCT-116 [10] = experiment: Induction of apoptosis in human HCT-116 cells assessed as necrotic cells at 0.5 uM by Annexin V-FITC/PI staining based assay (reference value: 1.05%); assay type: functional
HCT-116 [11] = experiment: Induction of apoptosis in human HCT-116 cells assessed as necrotic cells at 2 uM by Annexin V-FITC/PI staining based assay (reference value: 1.05%); assay type: functional
HCT-116 [12] = experiment: Induction of apoptosis in human HCT-116 cells assessed as necrotic cells at 1 uM by Annexin V-FITC/PI staining based assay (reference value: 1.05%); assay type: functional
HCT-116 [13] = experiment: Induction of apoptosis in human HCT-116 cells assessed as early apoptotic cells at 0.5 uM by Annexin V-FITC/PI staining based assay (reference value: 1.82%); assay type: functional
HCT-116 [14] = experiment: Induction of apoptosis in human HCT-116 cells assessed as early apoptotic cells at 1 uM by Annexin V-FITC/PI staining based assay (reference value: 1.82%); assay type: functional
HCT-116 [15] = experiment: Induction of apoptosis in human HCT-116 cells assessed as viable cells at 1 uM by Annexin V-FITC/PI staining based assay (reference value: 96.76%); assay type: functional; conditions: read-out: Activity
HCT-116 [16] = experiment: Upregulation of H3K4me1 expression in human HCT-116 cells at 0.125 to 0.5 uM; assay type: functional, cell-based; conditions: dose 0.125-0.5 µM
HCT-116 [17] = experiment: Induction of apoptosis in human HCT-116 cells assessed as necrotic cells at 0.125 uM by Annexin V-FITC/PI staining based assay (reference value: 1.05%); assay type: functional
HCT-116 [18] = experiment: Induction of apoptosis in human HCT-116 cells assessed as early apoptotic cells at 0.125 uM by Annexin V-FITC/PI staining based assay (reference value: 1.82%); assay type: functional
[19] = Toxicity in nude mouse xenografted with human HCT-116 cells assessed as change in body weight at 60 mg/kg, ip; assay type: organism-based; conditions: in vivo
HCT-116 [20] = experiment: Induction of apoptosis in human HCT-116 cells assessed as viable cells at 0.25 uM by Annexin V-FITC/PI staining based assay (reference value: 96.76%); assay type: functional; conditions: read-out: Activity
HCT-116 [21] = experiment: Induction of apoptosis in human HCT-116 cells assessed as viable cells at 0.125 uM by Annexin V-FITC/PI staining based assay (reference value: 96.76%); assay type: functional; conditions: read-out: Activity
HCT-116 [22] = experiment: Induction of apoptosis in human HCT-116 cells assessed as early apoptotic cells at 0.25 uM by Annexin V-FITC/PI staining based assay (reference value: 1.82%); assay type: functional
HCT-116 [23] = experiment: Induction of apoptosis in human HCT-116 cells assessed as necrotic cells at 0.25 uM by Annexin V-FITC/PI staining based assay (reference value: 1.05%); assay type: functional
HCT-116 [24] = experiment: Induction of apoptosis in human HCT-116 cells assessed as late apoptotic cells at 0.25 uM by Annexin V-FITC/PI staining based assay (reference value: 0.37%); assay type: functional
HCT-116 [25] = experiment: Upregulation of H3K4me2 expression in human HCT-116 cells at 0.125 to 0.5 uM; assay type: functional, cell-based; conditions: dose 0.125-0.5 µM
HCT-116 [26] = experiment: Antiproliferative activity against human HCT-116 cells assessed as reduction in EdU positive cells at 0.25 uM; assay type: functional, cell-based
HCT-116 [27] = experiment: Antitumor activity against human HCT-116 cells xenografted in nude mouse assessed as tumor growth inhibition at 60 mg/kg, ip measured every 3 days; assay type: functional; set-up: scale not given: the % may be the effect or the level left
HCT-116 [28] = experiment: Induction of apoptosis in human HCT-116 cells assessed as late apoptotic cells at 0.125 uM by Annexin V-FITC/PI staining based assay (reference value: 0.37%); assay type: functional
HCT-116 [29] = experiment: Induction of cell cycle arrest in human HCT-116 cells assessed as increase in S-phase cells; assay type: functional, cell-based

SMILES: CC1COCC(C)N1S(=O)(=O)c1cccc(C(=O)N/N=C2\CCc3cccc(O)c32)c1 (centres undefined)
- IC50 (DU-145): 11.8 µM
- IC50 (A2780): 0.7 µM
- IC50 (MDA-MB-231): 1 µM
- IC50 (HCT-116 [1]): 0.7 µM
- IC50 (A549): 0.3 µM
- solubility [2]: 0.0302 mg/mL (≈ 68.1 µM)
- IC50 (MCF7): 0.3 µM

SMILES: C/C(=N\NC(=O)c1cccc(S(=O)(=O)N2CCN(C)CC2)c1)c1cc(Cl)ccc1O [SECLIDEMSTAT]
- IC50 (DU-145): 10.5 µM
- Activity (HCT-116 [3]): 0.64%
- viability at 2 µM (HCT-116 [4]): 91.7%
- IC50 (A2780): 2.4 µM
- Activity (HCT-116 [5]): 2.16%
- Activity (HCT-116 [6]): 0.97%
- IC50 (MDA-MB-231): 1.1 µM
- Activity (HCT-116 [7]): 5.44%
- IC50 (HCT-116 [1]): 0.6 µM
- viability at 0.5 µM (HCT-116 [8]): 92.1%
- IC50 (A549): 2.7 µM
- Activity (HCT-116 [9]): 63%
- Activity (HCT-116 [10]): 2.48%
- solubility [2]: 0.0357 mg/mL (≈ 79.2 µM)
- IC50 (MCF7): 0.4 µM
- Activity (HCT-116 [11]): 1.87%
- Activity (HCT-116 [12]): 1.32%
- Activity (HCT-116 [13]): 3.22%
- Activity (HCT-116 [14]): 4.56%
- viability at 1 µM (HCT-116 [15]): 93.5%

SMILES: CC1COCC(C)N1S(=O)(=O)c1cccc(C(=O)N/N=C2\CCc3c(Cl)ccc(O)c32)c1 (centres undefined)
- IC50 (DU-145): 9.2 µM
- IC50 (A2780): 0.5 µM
- IC50 (MDA-MB-231): 0.9 µM
- IC50 (HCT-116 [1]): 0.5 µM
- IC50 (A549): 0.5 µM
- solubility [2]: 0.0239 mg/mL (≈ 50 µM)
- IC50 (MCF7): 0.6 µM

SMILES: CC1COCC(C)N1S(=O)(=O)c1cccc(C(=O)N/N=C2\CCc3c(O)ccc(O)c32)c1 (centres undefined)
- Activity (HCT-116 [16]): Active; Slight Increase Observed
- IC50 (DU-145): 2.3 µM
- Activity (HCT-116 [17]): 0.69%
- IC50 (A2780): 0.9 µM
- Activity (HCT-116 [5]): 2.15%
- IC50 (MDA-MB-231): 0.8 µM
- Activity (HCT-116 [18]): 10.47%
- Activity [19]: Non-toxic
- IC50 (HCT-116 [1]): 0.1 µM
- viability at 0.25 µM (HCT-116 [20]): 79.7%
- viability at 0.5 µM (HCT-116 [8]): 70.2%
- viability at 0.125 µM (HCT-116 [21]): 86.1%
- IC50 (A549): 0.3 µM
- Activity (HCT-116 [22]): 17.28%
- Activity (HCT-116 [9]): 71%
- Activity (HCT-116 [23]): 1.28%
- Activity (HCT-116 [24]): 1.71%
- Activity (HCT-116 [10]): 2%
- solubility [2]: 0.0772 mg/mL (≈ 168 µM)
- IC50 (MCF7): 0.1 µM
- Activity (HCT-116 [25]): Active; Slight Increase Observed
- Activity (HCT-116 [26]): Active; At High Concentration Showed More Potent Activity Than Sp-2577
- Activity (HCT-116 [13]): 25.6%
- Activity (HCT-116 [27]): 75%
- Activity (HCT-116 [28]): 2.73%
- Activity (HCT-116 [29]): Dose-dependent-effect

SMILES: O=C(N/N=C1\CCc2c(O)ccc(O)c21)c1cccc(S(=O)(=O)N2CCOCC2)c1
- IC50 (DU-145): 7.6 µM
- IC50 (A2780): 1.6 µM
- IC50 (MDA-MB-231): 3.2 µM
- IC50 (HCT-116 [1]): 0.9 µM
- IC50 (A549): 1.4 µM
- solubility [2]: 0.0469 mg/mL (≈ 109 µM)
- IC50 (MCF7): 0.6 µM

SMILES: O=C(N/N=C1\CCc2c(Cl)ccc(O)c21)c1cccc(S(=O)(=O)N2CCOCC2)c1
- IC50 (DU-145): 2.5 µM
- IC50 (MDA-MB-231): 2.8 µM
- IC50 (HCT-116 [1]): 0.5 µM
- IC50 (A549): 1 µM
- solubility [2]: 0.029 mg/mL (≈ 64.5 µM)
- IC50 (MCF7): 0.5 µM

SMILES: O=C(N/N=C1\CCc2cccc(O)c21)c1cccc(S(=O)(=O)N2CCOCC2)c1
- IC50 (DU-145): 1.9 µM
- IC50 (A2780): 0.9 µM
- IC50 (MDA-MB-231): 2.9 µM
- IC50 (HCT-116 [1]): 0.4 µM
- IC50 (A549): 0.9 µM
- solubility [2]: 0.0279 mg/mL (≈ 67.2 µM)
